According to US20120207743A1 (priority 2011, published 2012):

Test system: DU-145 cells
Assay type: cell-based, Human

C=C1[C@@H](C)[C@H]2[C@H](Cc3ccccc3)NC(=O)[C@]23[C@H](OC(C)=O)/C=C/[C@@](C)(O)C(=O)[C@@H](C)C/C=C/[C@H]3[C@@H]1O [Cytochalasin-D]
Reduction in cell migration compared to cells treated with media alone: did not migrate
Relative Wound Density at 24 Hours, Mean: 3.3 ± 0.2
Relative Wound Density at 24 Hours, Percent Relative to Media: 4%
